Assay results published in the NIST ThermoML archive (doi:10.1021/je9010568).

Conditions: Liquid

OCCO [1,2-ethanediol]
Conditions	specific volume [m3/kg]
273.15 K, 100 kPa, Vibrating tube method	0.0008871
274.14 K, 100 kPa, Vibrating tube method	0.0008876
275.14 K, 100 kPa, Vibrating tube method	0.0008882
276.15 K, 100 kPa, Vibrating tube method	0.0008887
277.15 K, 100 kPa, Vibrating tube method	0.0008893
278.15 K, 100 kPa, Vibrating tube method	0.0008898
279.15 K, 100 kPa, Vibrating tube method	0.0008904
280.15 K, 100 kPa, Vibrating tube method	0.0008909
281.15 K, 100 kPa, Vibrating tube method	0.0008915
282.15 K, 100 kPa, Vibrating tube method	0.000892
283.15 K, 100 kPa, Vibrating tube method	0.0008926
284.15 K, 100 kPa, Vibrating tube method	0.0008931
285.15 K, 100 kPa, Vibrating tube method	0.0008937
286.15 K, 100 kPa, Vibrating tube method	0.0008942
287.15 K, 100 kPa, Vibrating tube method	0.0008948
288.09 K, 99800 kPa, Bellows volumetry	0.0008687
288.12 K, 348700 kPa, Bellows volumetry	0.0008241
288.15 K, 100 kPa, Vibrating tube method	0.0008954
288.15 K, 299700 kPa, Bellows volumetry	0.0008313
288.15 K, 349400 kPa, Bellows volumetry	0.0008238
288.16 K, 100 kPa, Vibrating tube method	0.0008954
288.17 K, 150000 kPa, Bellows volumetry	0.0008579
288.17 K, 248800 kPa, Bellows volumetry	0.0008395
288.17 K, 298500 kPa, Bellows volumetry	0.0008314
288.17 K, 350400 kPa, Bellows volumetry	0.0008236
288.18 K, 48900 kPa, Bellows volumetry	0.0008815
288.18 K, 99800 kPa, Bellows volumetry	0.0008684
288.18 K, 149400 kPa, Bellows volumetry	0.0008577
288.18 K, 198100 kPa, Bellows volumetry	0.0008485
288.18 K, 299200 kPa, Bellows volumetry	0.0008312
288.19 K, 49200 kPa, Bellows volumetry	0.0008811
288.19 K, 249300 kPa, Bellows volumetry	0.0008392
288.2 K, 248600 kPa, Bellows volumetry	0.0008396
288.21 K, 100 kPa, Vibrating tube method	0.0008954
288.21 K, 49000 kPa, Bellows volumetry	0.0008815
288.21 K, 199700 kPa, Bellows volumetry	0.0008479
288.22 K, 100 kPa, Vibrating tube method	0.0008954
288.23 K, 149400 kPa, Bellows volumetry	0.000858
288.24 K, 99600 kPa, Bellows volumetry	0.0008688
288.24 K, 199700 kPa, Bellows volumetry	0.0008482
289.15 K, 100 kPa, Vibrating tube method	0.0008959
290.15 K, 100 kPa, Vibrating tube method	0.0008965
291.15 K, 100 kPa, Vibrating tube method	0.000897
292.15 K, 100 kPa, Vibrating tube method	0.0008976
293.15 K, 100 kPa, Vibrating tube method	0.0008982
294.15 K, 100 kPa, Vibrating tube method	0.0008987
295.15 K, 100 kPa, Vibrating tube method	0.0008993
296.15 K, 100 kPa, Vibrating tube method	0.0008998
297.15 K, 100 kPa, Vibrating tube method	0.0009004
298.16 K, 100 kPa, Vibrating tube method	0.000901
299.16 K, 100 kPa, Vibrating tube method	0.0009016
300.16 K, 100 kPa, Vibrating tube method	0.0009021
301.16 K, 100 kPa, Vibrating tube method	0.0009027
302.16 K, 100 kPa, Vibrating tube method	0.0009033
303.15 K, 100 kPa, Vibrating tube method	0.0009038
304.16 K, 100 kPa, Vibrating tube method	0.0009044
305.15 K, 100 kPa, Vibrating tube method	0.000905
306.15 K, 100 kPa, Vibrating tube method	0.0009056
307.15 K, 100 kPa, Vibrating tube method	0.0009061
308.15 K, 100 kPa, Vibrating tube method	0.0009067
309.15 K, 100 kPa, Vibrating tube method	0.0009073
310.15 K, 100 kPa, Vibrating tube method	0.0009079
311.15 K, 100 kPa, Vibrating tube method	0.0009085
312.15 K, 100 kPa, Vibrating tube method	0.0009091
313.15 K, 100 kPa, Vibrating tube method	0.0009097

CC(O)CO (stereo not given) [1,2-propanediol]
Conditions	specific volume [m3/kg]
273.15 K, 100 kPa, Vibrating tube method	0.0009519
274.15 K, 100 kPa, Vibrating tube method	0.0009525
275.15 K, 100 kPa, Vibrating tube method	0.0009532
276.15 K, 100 kPa, Vibrating tube method	0.0009538
277.15 K, 100 kPa, Vibrating tube method	0.0009544
278.15 K, 100 kPa, Vibrating tube method	0.0009551
279.15 K, 100 kPa, Vibrating tube method	0.0009557
280.15 K, 100 kPa, Vibrating tube method	0.0009563
281.15 K, 100 kPa, Vibrating tube method	0.000957
282.16 K, 100 kPa, Vibrating tube method	0.0009576
283.16 K, 100 kPa, Vibrating tube method	0.0009583
284.16 K, 100 kPa, Vibrating tube method	0.0009589
285.16 K, 100 kPa, Vibrating tube method	0.0009596
286.16 K, 100 kPa, Vibrating tube method	0.0009602
287.16 K, 100 kPa, Vibrating tube method	0.0009609
287.78 K, 298200 kPa, Bellows volumetry	0.0008796
287.98 K, 348900 kPa, Bellows volumetry	0.0008706
288.05 K, 100 kPa, Vibrating tube method	0.0009615
288.05 K, 49200 kPa, Bellows volumetry	0.0009434
288.1 K, 299700 kPa, Bellows volumetry	0.0008829
288.11 K, 148700 kPa, Bellows volumetry	0.0009148
288.12 K, 198400 kPa, Bellows volumetry	0.0009035
288.12 K, 248700 kPa, Bellows volumetry	0.0008932
288.14 K, 99900 kPa, Bellows volumetry	0.0009277
288.15 K, 99300 kPa, Bellows volumetry	0.000926
288.16 K, 100 kPa, Vibrating tube method	0.0009616
288.17 K, 49000 kPa, Bellows volumetry	0.0009425
288.17 K, 349200 kPa, Bellows volumetry	0.0008746
288.2 K, 249300 kPa, Bellows volumetry	0.0008891
288.21 K, 148200 kPa, Bellows volumetry	0.0009125
288.22 K, 99800 kPa, Bellows volumetry	0.0009279
288.24 K, 199500 kPa, Bellows volumetry	0.0009
288.28 K, 149900 kPa, Bellows volumetry	0.0009146
288.29 K, 250100 kPa, Bellows volumetry	0.0008927
288.31 K, 100 kPa, Vibrating tube method	0.0009617
288.31 K, 199600 kPa, Bellows volumetry	0.0009031
288.31 K, 299900 kPa, Bellows volumetry	0.0008834
288.32 K, 349100 kPa, Bellows volumetry	0.000875
288.34 K, 100 kPa, Vibrating tube method	0.0009617
288.38 K, 48800 kPa, Bellows volumetry	0.0009437
289.16 K, 100 kPa, Vibrating tube method	0.0009622
290.15 K, 100 kPa, Vibrating tube method	0.0009629
291.15 K, 100 kPa, Vibrating tube method	0.0009636
292.15 K, 100 kPa, Vibrating tube method	0.0009643
293.15 K, 100 kPa, Vibrating tube method	0.0009649
294.15 K, 100 kPa, Vibrating tube method	0.0009656
295.15 K, 100 kPa, Vibrating tube method	0.0009663
296.16 K, 100 kPa, Vibrating tube method	0.000967
297.16 K, 100 kPa, Vibrating tube method	0.0009677
298.16 K, 100 kPa, Vibrating tube method	0.0009684
299.16 K, 100 kPa, Vibrating tube method	0.0009691
300.16 K, 100 kPa, Vibrating tube method	0.0009698
301.16 K, 100 kPa, Vibrating tube method	0.0009705
302.16 K, 100 kPa, Vibrating tube method	0.0009712
303.16 K, 100 kPa, Vibrating tube method	0.0009719
304.15 K, 100 kPa, Vibrating tube method	0.0009726
305.15 K, 100 kPa, Vibrating tube method	0.0009733
306.15 K, 100 kPa, Vibrating tube method	0.000974
307.15 K, 100 kPa, Vibrating tube method	0.0009747
308.15 K, 100 kPa, Vibrating tube method	0.0009754
309.15 K, 100 kPa, Vibrating tube method	0.0009761
310.15 K, 100 kPa, Vibrating tube method	0.0009769
311.15 K, 100 kPa, Vibrating tube method	0.0009776
312.15 K, 100 kPa, Vibrating tube method	0.0009783
313.15 K, 100 kPa, Vibrating tube method	0.000979
